Source: US20260069584A1, “METHODS OF TREATING CHRONIC MYELOID LEUKEMIA USING THE TYROSINE KINASE INHIBITOR VODOBATINIB” (Sun Pharma Advanced Research Company Ltd., priority 2022, published 2026)

Assays:
[1] = Parts B and C pooled (n=59): safety; conditions: in vivo
Text: Fifty-five of the 59 subjects (93.2%) experienced an AE during the study, of which 62.7% of AEs (n=37) were suspected to be related to the compound of Formula I treatment. Most frequently reported AEs related to the compound of Formula I included thrombocytopenia, neutropenia, nausea, diarrhea, pruritus, fatigue and myalgia. The compound of Formula I-related AEs was generally low grade and resolved with drug hold or dose reduction. […] The AEs were distributed across all the dosing cohorts without any safety trends or association with dose(s). The DLTs (except for 1 event of fatal intracranial hemorrhage) were non-serious AEs and managed well by dose delays and/or reductions. […] A total of 5 subjects died during the study or within 30 days after the last dose of the study drug, which is not unexpected given that all patients enrolled in the study had advanced and heavily pretreated CML. The AEs related to the compound of Formula I treatment were consistent with the advanced CML population with multiple comorbidities and concomitant medications during the study.

[2] = test system: Ph+ CML (CP CML, AP CML and BP CML) and Ph+ ALL; assay: Phase 1/2 dose-escalation and expansion study (Part B): disease response, all subjects; assay type: in vivo
Text: This was a Phase I/2, open-label, single-agent, multicenter, multi-dose, dose-escalation study in subjects with Philadelphia chromosome-positive Ph+ CML (CP CML, AP CML and BP CML) and Ph+ ALL. The primary objectives of this study were to determine the maximum tolerated dose (MTD; or recommended Phase 2 dose [RP2D]) of the compound of Formula I when administered orally and to evaluate its safety.
For patient selection, key inclusion criteria included men or women aged ≥18 years with Eastern Cooperative Oncology Group performance status 0, 1, or 2 with Ph+ CML (CP CML, AP CML, or BP CML) who are resistant and/or intolerant to ≥3 prior TKIs, having adequate organ and immune system function as indicated by Table 09, obtained ≤2 weeks prior to the administration of the compound of Formula I. Subjects with presence of T3151 mutations were not included in the study.
In this study, the dose-escalation cohort started with an accelerated titration study design (ATD) and shifted to a 3±3 design when subjects in the preceding ATD cohort experienced either grade 2 or higher adverse events (AEs) or dose-limiting toxicity (DLT) during Cycle 1 that was not clearly and incontrovertibly related to the underlying disease or concomitant medications. The DLT period consisted of 28 days (Cycle 1). Subjects experiencing DLTs were managed with dose delays and/or discontinuation and continued in the study until disease progression. Decisions to advance to a succeeding dose level occurred after the evaluation of safety and tolerability data for a given dose level.
Accordingly, the eligible subjects were treated in 4-week cycles of once daily self-administration of the compound of Formula I. The administration was after an overnight fast, or after maintaining approximately 2 hours of fasting before and after the dosing in all cycles.
For the cohorts, where the 3±3 design applies, 3 subjects were enrolled initially. If 2 of these subjects experienced a Grade 2 or more toxicity (that was not clearly and incontrovertibly related to the underlying disease or concomitant medications), subsequent cohorts were escalated according to smaller increments. Further, if there were no DLTs in the first 3 subjects, dose escalation to the next higher dose level was allowed to proceed. If 1 of the 3 subjects experienced a DLT, that dose level was expanded to 6 subjects (3 additional subjects were enrolled). If 2 subjects at a given dose level experienced a DLT, the MTD was considered to have been exceeded. The next lower dose level was expanded to 6 subjects, or if 6 subjects had already been enrolled and no more than 1 of the 6 subjects experienced a DLT, then this lower dose level was considered the MTD. Additional subjects were enrolled in dose escalation cohorts for further assessment of safety and efficacy of the compound of Formula 1 at doses that were tolerated (i.e., doses that have <2 DLTs in 6 enrolled subjects or <1 DLT in 3 enrolled subjects). Thus 204 mg was arrived at as MTD. A subject experiencing a DLT was allowed to continue therapy with a reduced dose. Subjects who experienced a DLT and recovered were treated at the next lower dose level until disease progression or other events requiring further dose reduction existed. For cohorts at Dose Level 2 or higher, a further dose reduction (i.e., up to 2 levels lower than their originally assigned dose) was implemented in the case of a further DLT or other non-DLT events requiring a dose reduction, if and when the event leading to dose reduction returned to Grade 1 or lower in severity. The reduced dose was re-escalated to the original or higher dose (i.e., the dose for which safety had been established in the dose escalation cohort) considering subject safety and response to the compound of Formula I. The subject was discontinued from treatment using the compound of Formula I, if dose reduction below 48 mg was required. […]

Cc1ccc(C(=O)NNC(=O)c2c(C)cccc2Cl)cc1C#Cc1cnc2ccccc2c1 [compound of Formula I, N′-(2-chloro-6-methylbenzoyl)-4-methyl-3-[2-(3-quinolyl)ethynyl]-benzohydrazide]
AEs suspected to be related to treatment ([1]; human): 62.7% | subjects who died during the study or within 30 days after the last dose ([1]; human): 5 subjects | subjects who experienced an AE ([1]; human): 93.2% | subjects who experienced an SAE ([1]; human): 34% | subjects with grade 3 or higher-grade AEs ([1]; human): Approximately 64.4% | relatedness of cardiac AEs [1]: considered unrelated | major molecular response ([2]; 18 of the 41 enrolled subjects): 43.9% | Major cytogenetic response (MCyR) as best response ([2]; 19 subjects enrolled at 174 mg): 10 subjects | complete cytogenetic response (CCyR) ([2]; 19 subjects enrolled at 174 mg): 9 subjects | major hematological response (MaHR) as best response ([2]; 19 subjects enrolled at 174 mg): all subjects | major molecular response as best response ([2]; 19 subjects enrolled at 174 mg): 4 subjects | partial cytogenetic response (PCyR) ([2]; 19 subjects enrolled at 174 mg): 1 subjects | complete cytogenetic response ([2]; 23 out of 41 enrolled subjects): 56.1% | complete hematologic response ([2]; 29 out of 41 enrolled subjects, refractory, 2 or more prior TKIs): 70.7% | individual subject outcome ([2]; AP CML, 48 mg escalated, ~24 months, daily dose of 174 mg): attained MCyR | individual subject outcome ([2]; CP CML, 12 mg escalated to 174 mg): achieved and maintained CCyR at doses ≥48 mg | individual subject outcome ([2]; CP CML, 24 mg escalated to 126 mg and 174 mg): maintain CCyR and molecular response between MMR and M2 | individual subject outcome ([2]; CP CML, 126 mg reduced to 90 and 66 mg (thrombocytopenia), re-escalated to 126 mg and 174 mg): tolerated the re-escalated higher dose well | individual subject outcome ([2]; CP CML, 174 mg reduced to 126 mg (grade 3/4 deranged pancreatic enzymes)): complete cytogenetic response and major molecular response | individual subject outcome ([2]; CP CML, 204 mg reduced to 174 mg (memory loss)): maintains a complete cytogenetic response and major molecular response | individual subject outcome ([2]; CP CML, 204 mg reduced to 174 mg (severe thrombocytopenia)): partial cytogenetic response and improved molecular response | individual subject outcome ([2]; CP CML, 3 prior TKIs incl. Ponatinib, 48 mg escalated to 174 mg): re-attained major molecular and cytogenetic responses | individual subject outcome ([2]; CP CML, 4 prior TKIs, 48 mg escalated to 90 mg and 174 mg): maintain complete cytogenetic and major molecular responses | individual subject outcome ([2]; CP CML, 4 prior TKIs, 66 mg escalated to 90 mg): Ph+ cells decreased to minimal cytogenetic response | individual subject outcome ([2]; CP CML, 6 prior TKIs, 174 mg escalated to 204 mg): improvement in cytogenetic response to minor cytogenetic response | individual subject outcome ([2]; CP CML, F317L, 66 mg reduced to 48 mg (back pain of grade 2)): maintained CCyR and MMR at 48 mg dose for ˜2.5 years | individual subject outcome ([2]; CP CML, M351T, 174 mg escalated to 204 mg at cycle 7, cycle 22): maintaining a complete hematological response and stable disease | individual subject outcome ([2]; donor one CP CML, 2 prior TKIs, 174 mg escalated to 204 mg): maintaining a hematological response | individual subject outcome ([2]; donor two CP CML, 2 prior TKIs, 174 mg escalated to 204 mg): improvement in cytogenetic response to partial cytogenetic response and improved molecular response | highest efficacious dose ([2]; human, in vivo): 204 mg | lowest dose observed to be therapeutically efficacious ([2]; human, in vivo): 48 mg | best cytogenetic response, Ph+ ([2]; one AP CML subject, Y253F, 48 mg escalated to 204 mg, 39 cycles, PCyR): 10% | best molecular response, BCR-ABL ([2]; one AP CML subject, Y253F, at 204 mg, 36 cycles): 0.931 % IS | individual subject outcome ([2]; subject at 66 mg, F317L with ACA): CCyR in cycle 7 and MMR in cycle 4 | duration of maintained disease response at the lower dose ([2]; subject with F317L, reduced from 66 mg to 48 mg): about 2.5 years
